Measured values reported in patent US5776970A, “Tryptophan derivatives as protein tyrosine kinase blockers and their use in the treatment of neoplastic diseases” (Yeda Research and Development Co. Ltd., priority 1994, dated 1998).
In brackets after ≈: the same amount, converted by molar mass.

What was measured:
[1] = system: vanadate-stimulated lipogenesis in rat adipocytes; experiment: vanadate-stimulated lipogenesis in rat adipocytes; type: cell-based; conditions: Adipocyte, intact rat adipocytes, read-out: IC50, insulin-like effects of vanadate ions (lipogenesis)
[2] = system: insulin-stimulated lipogenesis in rat adipocytes; experiment: insulin-stimulated lipogenesis in rat adipocytes ([U-14C]glucose incorporation); type: cell-based; conditions: Adipocyte; intact rat adipocytes; insulin 100 ng/ml; 20 min pre-incubation, 60 min at 37° C.; read-out: IC50, insulin-dependent lipogenesis
Description: The fat pads of three rats were cut into small pieces with scissors and digested in 3 ml of Krebs-Ringer-Bicarbonate (KRB)-buffer containing 0.7% bovine serum albumin (BSA) (pH 7.4) with collagenase (1 mg/ml). […] Five ml of buffer was then added, and the cells were squeezed through a mesh screen. The cells were then allowed to stand for several minutes (in a 15 ml plastic test tube at room temperature, floating) and the buffer underneath was removed. This procedure (suspension, floating and removal of buffer underneath) was repeated three times. […] Fat cell suspensions were pre-incubated for 20 min at 37° C. with increasing concentrations of the inhibitors. Results are expressed in FIG. 2 as the percent of maximal stimulation at the indicated concentrations of inhibitors.

LB3 cells = experiment: LB3 cell proliferation in response to various mitogens (IL-2, growth hormone, PMA); type: cell-based, murine
Description: (§1) LB cells were removed from the peritoneal cavity of BALB/c mice, washed and resuspended in RPMI-1640. Then a continuous line designated LB3 was established in "LB medium" (50% RPMI-1640 plus 50% DCCM-1 in 10% fetal calf serum (FCS)). The LB3 cells were incubated (37° C., 5% CO2) in microplate wells (Nunc, Roskilde, Denmark) with 0.2 ml RPMI-1640 alone and in the same medium containing insulin, fetal calf serum (FCS) or both, and different concentrations of the compound CBZ-DNPS-TRP-TAU as indicated in FIG. 3. Proliferation capacity was determined by thymidine incorporation (^3 H-TdR, 1 μCi/well, specific activity 5 Ci/mM), added to the cells 24 hours later. In a typical experiment, cpm of ^3 H-thymidine incorporated into 30,000 cells was 12-14 fold higher in the presence of insulin or other mitogens than in their absence.
Experimental conditions were as described in Example 6 except that lower concentrations of mitogens were applied here (those triggering 50% of maximal proliferation): insulin, interleukin-2 (IL-2), growth hormone and PMA. PMA is an activator of protein kinase C. Protein kinase C in this cell type triggers proliferation by a pathway which is only partially dependent on endogenous tyrosine phosphorylation.

[3] = target: insulin receptor tyrosine kinase (InsRTK) (Rattus norvegicus, UniProt P15127); experiment: PolyGlu4 Tyr phosphorylation by partially purified (wheat-germ-agglutinin purified) rat liver insulin receptor, cell-free; type: biochemical; design: wheat-germ-agglutinin purified rat liver insulin receptor; from tissue; host or cells: rat liver (wheat-germ-agglutinin purified)
insulin receptor tyrosine kinase (InsRTK), sequence (P15127 764-1383 limits assumed): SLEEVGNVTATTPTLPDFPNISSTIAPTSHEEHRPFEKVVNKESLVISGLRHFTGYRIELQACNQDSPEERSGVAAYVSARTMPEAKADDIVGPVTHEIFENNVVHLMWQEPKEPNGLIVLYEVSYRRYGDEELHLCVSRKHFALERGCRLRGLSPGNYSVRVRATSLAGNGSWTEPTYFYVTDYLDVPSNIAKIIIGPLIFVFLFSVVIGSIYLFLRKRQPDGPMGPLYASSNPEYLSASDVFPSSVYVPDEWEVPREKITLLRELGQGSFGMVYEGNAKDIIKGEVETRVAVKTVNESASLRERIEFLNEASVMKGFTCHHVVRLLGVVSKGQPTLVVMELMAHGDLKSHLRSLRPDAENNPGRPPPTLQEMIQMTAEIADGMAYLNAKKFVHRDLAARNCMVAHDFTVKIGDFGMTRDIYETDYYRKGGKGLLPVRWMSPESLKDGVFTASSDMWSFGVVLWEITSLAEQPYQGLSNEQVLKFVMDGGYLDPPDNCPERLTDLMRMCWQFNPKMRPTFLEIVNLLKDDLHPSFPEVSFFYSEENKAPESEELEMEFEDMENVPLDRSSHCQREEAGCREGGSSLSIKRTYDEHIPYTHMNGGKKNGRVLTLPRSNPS
insulin receptor tyrosine kinase (InsRTK), sequence (P15127 27-759 partner limits assumed): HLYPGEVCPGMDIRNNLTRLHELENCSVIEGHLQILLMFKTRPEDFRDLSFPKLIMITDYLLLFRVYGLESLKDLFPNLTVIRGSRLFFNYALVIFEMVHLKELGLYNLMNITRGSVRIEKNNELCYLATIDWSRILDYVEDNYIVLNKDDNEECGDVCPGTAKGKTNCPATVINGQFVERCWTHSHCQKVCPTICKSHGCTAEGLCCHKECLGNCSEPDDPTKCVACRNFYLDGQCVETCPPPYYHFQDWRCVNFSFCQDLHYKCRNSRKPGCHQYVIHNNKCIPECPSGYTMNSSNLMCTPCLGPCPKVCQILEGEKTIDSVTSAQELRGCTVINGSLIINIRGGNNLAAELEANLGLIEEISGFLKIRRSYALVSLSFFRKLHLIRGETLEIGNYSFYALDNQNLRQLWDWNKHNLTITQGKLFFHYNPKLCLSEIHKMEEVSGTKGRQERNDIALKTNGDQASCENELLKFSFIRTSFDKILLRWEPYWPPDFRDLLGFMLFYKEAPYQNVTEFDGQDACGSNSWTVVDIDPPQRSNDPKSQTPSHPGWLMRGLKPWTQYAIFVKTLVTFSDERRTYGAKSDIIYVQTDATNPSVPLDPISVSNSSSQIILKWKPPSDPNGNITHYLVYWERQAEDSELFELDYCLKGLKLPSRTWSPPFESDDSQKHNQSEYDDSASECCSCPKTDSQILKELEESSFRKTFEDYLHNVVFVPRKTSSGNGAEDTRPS
Description: An assay of PolyGlu4 Tyr phosphorylation by partially purified insulin receptor was run for 30 min at 22° C. in 60 μl of 50 mM Hepes (pH 7.4)-0.1% Triton X-100 containing wheat-germ-agglutinin purified rat liver insulin receptor (1 μg protein), MgCl2 25 mM; MnCl2, 1 mM, ATP 17 μM, insulin 0.1 μM, PolyGlu4 Tyr, 0.17 mg/ml and the indicated concentrations in FIG. 1 of CBZ-DNPS-TRP-TAU. Phosphotyrosine content in PolyGlu4 Tyr was determined by a radioimmunoassay procedure (Shisheva et al., 1991). […] The inhibitory potency of other derivatives of formula I on InsRTK-catalyzed PolyGlu4 Tyr phosphorylation in cell-free experiments was determined. […] For comparison, the IC50 values for AC-TRP-TAU and L-tryptophan are 5 mM and >30 mM, respectively.
(§2) Various derivatives according to the invention in which R^1 is benzyloxycarbonyl (CBZ) or t-butoxycarbonyl (t-Boc), R^2 is --SO3 H or --PO3 H, n is 1,2 or 3, and R^3 is H, 2-nitrophenylthio (NPS) or 2,4-dinitrophenylthio (DNPS) were prepared and examined in cell-free and intact cell systems. The cell-free assay is PolyGlu4 Tyr phosphorylation by partially purified insulin receptor as described in Example 3. The assay in intact cells (namely, lipogenesis) was carried out as described in Example 4.

rat adipocytes = experiment: permeability into cell interiors (intact cell system, lipogenesis); type: cell-based; conditions: graded in words
Description: Rat adipocytes were prepared essentially by the method of Rodbell, 1964. The fat pads of three rats were cut into small pieces with scissors and digested in 3 ml of Krebs-Ringer-Bicarbonate (KRB)-buffer containing 0.7% bovine serum albumin (BSA) (pH 7.4) with collagenase (1 mg/ml). The digestion was performed in a 25 ml flexible plastic bottle under an atmosphere of carbogen (95% O2, 5% CO2) for 40 min at 37° C. with vigorous shaking. Five ml of buffer was then added, and the cells were squeezed through a mesh screen. The cells were then allowed to stand for several minutes (in a 15 ml plastic test tube at room temperature, floating) and the buffer underneath was removed. This procedure (suspension, floating and removal of buffer underneath) was repeated three times. For [^14 C-U]glucose incorporation (lipogenesis), the fat cell suspensions (3×10^5 cells/ml) were divided into plastic vials (0.5 ml per vial) and incubated for 60 min at 37° C. under an atmosphere of 95% O2, 5% CO2, with 0.2 mM [U-^14 C]glucose, in either the presence or absence of insulin (100 ng/ml) and the indicated concentrations in FIG. 2 of CBZ-DNPS-TRP-TAU. The reaction was terminated by adding toluene-based scintillation fluid (1.0 ml per vial) and the extracted lipids were counted (Shechter and Karlish, 1980). Fat cell suspensions were pre-incubated for 20 min at 37° C. with increasing concentrations of the inhibitors. Results are expressed in FIG. 2 as the percent of maximal stimulation at the indicated concentrations of inhibitors. In all experiments insulin-stimulated lipogenesis was 4- to 5-fold higher than basal; basal ~2000 cpm per 3×10^5 cells/h; Vinsulin 8000-10,000 cpm per 3×10^5 cells/h.
as §2

[4] = system: murine T-cell lymphoma (LB3); experiment: insulin-dependent proliferation of murine T-cell lymphoma (LB3), thymidine incorporation; type: cell-based
Description: as §1

[5] = system: isoproterenol-mediated lipolysis; experiment: isoproterenol-mediated lipolysis in rat adipocytes (glycerol release); type: cell-based
Description: In general there are two classes of protein kinases (PKs) in mammalian tissues: (a) PKs which phosphorylate tyrosine moieties in proteins (to phosphotyrosine), and (b) PKs which phosphorylate serine and threonine moieties (to phosphoserine and phosphotreonine). […] An example for such a metabolic effect is lipolysis which depends on protein kinase A. Rat adipocytes (prepared by the method of Rodbell, 1964) were incubated with isoproterenol alone (1 μM) or isoproterenol with CBZ-DNPS-TRP-TAU (200 μM) for one hour at 37° C. The amount of glycerol released from the cells was then determined by spectroscopic procedure (Shechter, 1982).

Structure (SMILES): O=C(N[C@@H](Cc1c(Sc2ccc([N+](=O)[O-])cc2[N+](=O)[O-])[nH]c2ccccc12)C(=O)NCCS(=O)(=O)O)OCc1ccccc1 [CBZ-DNPS-TRP-TAU]
- IC50 [1]: 45 µM
- IC50 [2]: 170 µM
- solubility (solubility; dmf, organic solvent or mixture): 20 mM (≈ 12.9 mg/mL)
- solubility (solubility; dmso, organic solvent or mixture): 20 mM (≈ 12.9 mg/mL)
- solubility (solubility; water): ≤ 2 mM
- inhibition of IL-2-dependent proliferation of the T-cell lymphoma (LB3 cells; IL-2 at 50% of maximal proliferation): blocks
- inhibition of protein kinase C-dependent proliferation (LB3 cells; PMA at 50% of maximal proliferation): at significantly higher concentrations
- inhibition of growth hormone-dependent proliferation of the T-cell lymphoma (LB3 cells; growth hormone at 50% of maximal proliferation): blocks
- IC50 [3]: 130 µM
- Permeability into cell interiors (rat adipocytes): excellent
- concentration range lower than that required to inhibit normal metabolic biological effects of insulin ([4]; LB3 proliferation vs lipogenesis in rat adipocytes (FIG. 2)): ~200 times
- IC50 ([4]; Mus musculus, T-cell, LB3, insulin-dependent, thymidine added 24 hours later): 0.95 µM
- effect in inhibiting isoproterenol-mediated lipolysis ([5]; 200 μM, isoproterenol 1 μM, one hour at 37° C.): negligible effect
- Amount of glycerol released ([5]; CBZ-DNPS-TRP-TAU 200 μM plus isoproterenol 1 μM): 154 nmol/3 × 10^5 cells/3 h
- activity at 200 µM ([5]; Rattus norvegicus, Adipocyte, CBZ-DNPS-TRP-TAU 200 μM plus isoproterenol 1 μM, read-out: Percent lipolysis): 93%
